Test system: caspase-3
Assay: Caspase-3-dependent DsRed fluorescence in live transgenic zebrafish embryos injected with the UbG-DEVDsRx reporter construct
Type: in vivo
Experimental: As discussed in detail below, the invention was tested by making a construct where the degradation signal is a non-removable ubiquitin moiety (G76V zebrafish ubiquitin mutant) fused to the red fluorescent protein DsRed Express by a linker containing a caspase-3 cleavage site (amino acid sequence: DEVD; SEQ ID NO: 1). […] The DNA construct was microinjected in one-cell-stage zebrafish embryos to generate transgenic fish where apoptotic cells express the red fluorescent marker.
Specific labelling of apoptotic cells by UbG-DEVDsRx depends on a functional proteasomal degradation pathway because failure to degrade the UbG76V-tagged chimera would allow fluorescence to develop, even in the absence of caspase-3 activity.
Morpholino-modified oligonucleotides were injected in the yolk of one-cell-stage embryos. DNA constructs were linearized and injected in the cytoplasm of one-cell-stage embryos. For each experiment, 200-250 transgenics were generated. Upon reaching the desired age, 20-30 embryos with similar transgene expression levels and low-mosaicism were selected for TUNEL labelling, confocal microscopy, in vivo observations and cell counts.
Fixed and live embryos were embedded in 1.2% low-melt agarose on a glass slide and immersed in a drop of water to retain humidity.

## COC(=O)CC[C@H](NC(=O)[C@H](CC(=O)OC)NC(=O)OCc1ccccc1)C(=O)N[C@H](C(=O)N[C@@H](CC(=O)OC)C(=O)CF)C(C)C [Z-DEVD-FMK]
Embryo incubated in the presence of Z-DEVD-FMK, 75 μM, FIG. 1e
  expression of red fluorescence in embryo injected with the test construct: does not express any fluorescence
Embryos exposed to the caspase-3 inhibitor, concentration not given
  fluorescence (UbG-DEVDsRx labelling) in living transgenic embryos: fluorescence is absent
